Measurements published in patent publication US20260007716A1, “DESLORELIN FOR ATTENUATION OF ANIMAL URINE ODOR” (priority 2022, published 2026).

Tests used:
male cats [1] = test: Cat field studies 1 and 2: suppression of fertility, re-implantation and reversibility (Example 4); format: in vivo
Experimental: This example provides the data collected from 2 combined studies (Double-masked Placebo-Controlled randomized) that have been conducted sequentially according to the following schedule: • Study 1: The study 1 has been conducted on a group of 205 male cats divided into two groups, one Control Group that received 1 mL of saline solution (n=51-subcutaneous administration) and one Treated Group (n=154) that received an implant of Suprelorin® 4.7 mg (subcutaneous implant-deslorelin acetate). • Study 2: At the end of a first period of 12 months, the Suprelorin® implant was removed in all the male cats belonging to the Treated Group. 12 male cats of the Treated Group issued from study 1 were then administered saline solution (1 mL subcutaneously) (Saline Group) and 22 cats of the Treated Group issued from Study 1 were re-implanted with a new Suprelorin® 4.7 mg implant for a second period of time of 12 months (Treated twice Group). The efficacy and safety of the re-implantation was followed-up for these supplementary 12 months, i.e. for a total of 24 months.
The observation schedule was as follows: • Study 1: V1: Day −14 to −7; V2: Day 0; V3: 1.5 months±3 days; V4: 3 months±5 days, V5: 6 months±5 days, V6: 9 months±5 days; V7: 12 months±5 days; • Study 2: V8: 12 months±3 days; V9: 13.5 months±3 days; V10: 15 months±5 days; V11: 18 months±5 days; V12: 21 months±5 days; V13: 24 months±5 days.
Regarding the enrolment criteria, in both studies the criteria were as the following: • Domestic Cats • Age >3 MONTHS old or >15 MONTHS in Study 2 • Intact Indoor males • Client-owned (including shelter cats/rehomed by foster families)
With the additional criteria for study 2 of being a success in study 1.
In these studies the following primary endpoints were measured: • For Study 1: the suppression of fertility (Testosterone≤0.10 ng/ml*from V4 until V7*-3 to 12 months) • Study 2: the suppression of fertility (Testosterone≤0.10 ng/ml*from V8 until V13 (12 to 24 months) and the time to reversion effect.
In addition to the safety parameters (Haematology and blood biochemistry, Urinalysis, Local reactions at the implantation site, Change in Body weight, Appetite, Abnormal testicular evaluation, Adverse events), the following secondary endpoints have been reported as well: • Sexual behaviour sum score • Aggression • Vocalization • Urine marking • Urine Smell/odour • Penile Spines • Testicular volume

male cats [2] = test: Multi-site field, double-masked, placebo-controlled study of a single 4.7 mg deslorelin implant in male cats (Example 1); format: in vivo
Experimental: The aim of this multi-site field, double-masked, placebo-controlled, randomized study was to confirm that deslorelin implants can be used as a neutering option for male cats and can also reduce their associated tomcat sexual behaviours.
Privately owned indoor male cats [3 months-11 years of age] were allocated to two groups to be either implanted with one 4.7 mg deslorelin implant (Suprelorin® 4.7 mg, Virbac, France) or to receive sodium chloride. The implant and the saline solution were administered subcutaneously between the shoulder blades on day 0 (D0). Serum testosterone concentrations in ng/ml (T), sexual behaviors (presence of urine marking, frequency of vocalization, frequency of aggressiveness) and presence of intact male cat urine odour were assessed until month (M) 12 (D372). General safety assessments, bodyweight, appetite and adverse reactions were regularly followed.
The protocol received ethical approval. The Cochran-Mantel-Haenszel test stratified by center with the RIDIT transformation and the general association statistic were used for comparison between groups.
Among n=205 Male Cats, n=154 received Suprelorin® 4.7 mg (treated group) and n=51 received the saline solution as control group.

[3] = test system: molecules responsible of urine odor; test: LC-MS/MS metabolomic analysis of urine of male cats after deslorelin implant (Examples 2 and 3); format: in vivo, cat
Experimental: A first study A was performed in 2 groups of a total number of 7 male healthy cats old from 12 to 13 months and weighting between 4 and 6 kg in: Control group: n=3, intact males, administered sodium chloride (saline) on day 0 (D0), Chemically treated group: n=4 one implant of Suprelorin® 4.7 mg on day 0 (D0). The study A was conducted for a period of 63 days after the implantation of Suprelorin® 4.7 mg. From […]-7, a clinical examination of the cats was performed (body weight, temperature) and samples of urine and feces were collected. At D0, the cats of the treated group were implanted subcutaneously with Suprelorin® 4.7 mg (Virbac, France). From D7 to […], a weekly clinical examination of the cats was performed (body weight, temperature) and samples urine and feces were collected. […] Thanks to this unusual technic, the metabolomics present in samples have been assessed. […] The workflow template was untargeted metabolomics with statistics to detect unknowns with ID using online Databases and mzLogic.ons obtained from positive and negative ionization mode using MZmine (Version 2.39) were also analyzed. […] Chromatograms were detected using the ADAP chromatogram builder (MS level: 1, Minimum group size in number of scans: 5, Group intensity threshold: 5×10^2, minimum highest intensity: 10^5, m/z tolerance: 10 ppm). […]

cat = test: Safety study in cat and tolerance studies in male and female species; format: in vivo; conditions: safety study in cat, high dose
dogs = conditions: cited from earlier work
[4] = vs saline group, throughout the study

CCNC(=O)[C@@H]1CCCN1C(=O)[C@H](CCCN=C(N)N)NC(=O)[C@H](CC(C)C)NC(=O)[C@@H](Cc1c[nH]c2ccccc12)NC(=O)[C@H](Cc1ccc(O)cc1)NC(=O)[C@H](CO)NC(=O)[C@H](Cc1c[nH]c2ccccc12)NC(=O)[C@H](Cc1cnc[nH]1)NC(=O)[C@@H]1CCC(=O)N1 [deslorelin]
duration of effective chemical castration (male cats [1]): at least 12 months
reversibility of effect at the end of the treatment (male cats [1]): reversible
sexual behaviors (male cats [1]): reduced
onset of efficacy in behavioral reduction (male cats [1]; approx.): 7 to 31 days
safety concerns (male cats [1]; single or repeated administration, up to 24 months): no safety concern
flare in sexual behavior (male cats [2]; one 4.7 mg implant): No flare in sexual behavior
safety concerns (male cats [2]; one 4.7 mg implant, up to M12): no safety concerns
Sexual behavior scores (male cats [2]; [4]): decreased significantly
testicular volumes (male cats [2]; [4]): decreased significantly
urine odour (male cats [2]; [4]): decreased significantly
visibility of penile spines (male cats [2]; [4]): decreased significantly
levels of cadaverine, indole, paracresol, isovalthine and isobuteine ([3]; individually or together at least by two, summary of Example 3 data): down regulate
p-coumaroylputrescine concentration in urine ([3]; male cat urine, as a function of time, chemically treated group vs control group): decrease
adverse events (cat): neither serious adverse events nor live threatening events
presence of deslorelin (dogs; dog, in vivo): 2.5 months
duration of observed effect (dogs; dogs): at least 6 months
